Values quoted from earlier work, collected in patent US6761903B2, “Clear oil-containing pharmaceutical compositions containing a therapeutic agent” (Lipocine, Inc., priority 1999, dated 2004).

Conditions: as reported by the manufacturer of the commercial product, rough average or inventors' judgment

| Compound | HLB |
| --- | --- |
| 1,2 and 1,3-diolein [1,2 and 1,3-diolein (C18:1)] | <10 |
| CCCCC/C=C\C/C=C\CCCCCCCC(=O)OCC [Ethyl linoleate] | <10 |
| CCCCCCCC/C=C\CCCCCCCC(=O)OCC [Ethyl oleate] | <10 |
| CCCCC/C=C\C/C=C\CCCCCCCC(=O)OCC(O)CO (stereo not shown) [Glycerol monolinoleate] | 3-4 |
| CCCCCCCCCCCCCCCC(=O)OCC(O)CO (stereo not shown) [Glycerol monopalmitate] | 4 |
| CCCCCCCCCCCCCCCCCC(=O)OCC(O)CO (stereo not shown) [Glycerol monostearate] | 5-9 |
| CC(=O)OCC(O)CO (stereo not shown) [Glyceryl acetate] | <10 |
| CCCCCCCC(=O)OCC(O)CO (stereo not shown) [Glyceryl caprylate] | 5-6 |
| CCCCCCCCCCCC(=O)OCC(O)CO (stereo not shown) [Glyceryl laurate] | 4 |
| CCCCCCCCCCCC(=O)OCC(O)CO (stereo not shown) [Glyceryl monolaurate] | 6.8 |
| CCCCCCCCCCCCCC(=O)OCC(O)CO (stereo not shown) [Glyceryl monomyristate (C14), Glyceryl monomyristate] | 3-4 |
| CCCCCCCC/C=C\CCCCCCCC(=O)OCC(O)CO (stereo not shown) [Glyceryl monooleate (C18:1), Glyceryl monooleate] | 3-4 |
| CCCCCCCCCCCCCCCCCC(=O)OCC(O)CO (stereo not shown) [Glyceryl monostearate] | 4.4 |
| CCCCCC[C@@H](O)C/C=C\CCCCCCCC(=O)OCC(O)CO (stereo partly shown) [Glyceryl ricinoleate] | 6 |
| CCCCC/C=C\C/C=C\CCCCCCCC(=O)OC(C)C [Isopropyl linoleate] | <10 |
| CCCCCCCCCCCCCC(=O)OC(C)C [Isopropyl myristate] | <10 |
| CCCCCCCCCC(=O)OCC(O)CO (stereo not shown) [Monocaprin] | <10 |
| CCCCCC(=O)OCC(O)CO (stereo not shown) [Monocaproin (C6), Monocaproin] | <10 |
| CCCCCCCC(=O)OCC(O)CO (stereo not shown) [Monocaprylin] | <10 |
| CCCCCCCC/C=C/CCCCCCCC(=O)OCC(O)CO (stereo not shown) [Monoelaidin (C18:1), Monoelaidin] | <10 |
| CCCCCCCCCCCC(=O)OCC(O)CO (stereo not shown) [Monolaurin] | <10 |
| CCCCCC/C=C\CCCCCCCC(=O)OCC(O)CO (stereo not shown) [Monopalmitolein (C16:1), Monopalmitolein] | <10 |
| CCCCCCCCCCCCCCCCCC(=O)OCCO [PEG-1 stearate] | 2 |
| CCCCCCCCCCCCOCCOCCOCCOCCO [PEG-4 lauryl ether] | 9.7 |

| Compound | HLB |
| --- | --- |
| CCCCCCCCCCCCCCCCCC(=O)OCC(CO)(CO)COC(=O)CCCCCCCCCCCCCCCCC [Pentaerythrityl distearate] | <10 |
| CCCCCCCC/C=C\CCCCCCCC(=O)OCC(COC(=O)CCCCCCC/C=C\CCCCCCCC)(COC(=O)CCCCCCC/C=C\CCCCCCCC)COC(=O)CCCCCCC/C=C\CCCCCCCC [Pentaerythrityl tetraoleate] | <10 |
| CCCCCCCCCCCCCCCCCC(=O)OCC(COC(=O)CCCCCCCCCCCCCCCCC)(COC(=O)CCCCCCCCCCCCCCCCC)COC(=O)CCCCCCCCCCCCCCCCC [Pentaerythrityl tetrastearate] | <10 |
| CCCCCCCCCC(=O)OCC(C)OC(=O)CCCCCCCCC (stereo not shown) [Propylene glycol dicaprate] | >6 |
| CCCCCCCCCCCC(=O)OCC(C)OC(=O)CCCCCCCCCCC (stereo not shown) [Propylene glycol dilaurate] | >6 |
| CCCCCCCC(=O)OCC(C)OC(=O)CCCCCCC (stereo not shown) [Propylene glycol dioctanoate] | >6 |
| CCCCCCCCCCCCCCCCCC(=O)OCC(C)OC(=O)CCCCCCCCCCCCCCCCC (stereo not shown) [Propylene glycol distearate] | >6 |
| CCCCCCCCCCCCOS(=O)(=O)[O-].[Na+] [Sodium lauryl sulfate (dodecyl), Sodium lauryl sulfate] | 40 |
| CCCCCCCC/C=C\CCCCCCCC(=O)[O-].[Na+] [Sodium oleate] | 18 |
| Caprylic/capric glycerides | <10 |
| Dicaprin [Dicaprin (C10)] | <10 |
| Dicaproin [Dicaproin (C6)] | <10 |
| Dielaidin [Dielaidin (C18:1)] | <10 |
| Dilinolein [Dilinolein (C18:2)] | <10 |
| Dimyristin [Dimyristin (C14)] | <10 |
| Dioctanoin [Dioctanoin (C8)] | <10 |
| Dipalmitin [Dipalmitin (C16)] | <10 |
| Dipalmitolein [Dipalmitolein (C16:1)] | <10 |
| Distearin | <10 |
| Glycerol monooleate/linoleate | 3-4 |
| Glyceryl citrate/lactate/oleate/linoleate | <10 |
| Glyceryl dilaurate [Glyceryl dilaurate (C12)] | 3-4 |
| Glyceryl dioleate | 3-4 |
| Glyceryl mono-, dioleate | <10 |

| Compound | HLB |
| --- | --- |
| Glyceryl palmitic/stearic | <10 |
| PEG 4-100 monolaurate | >9 |
| PEG 4-100 monooleate | >8 |
| PEG 4-100 monostearate | >6 |
| PEG 100,200,300 monolaurate | >10 |
| PEG 100,200,300 monooleate | >10 |
| PEG 400 dioleate | >10 |
| PEG 400 distearate | >10 |
| PEG 400-1000 monostearate | >10 |
| PEG-2 oleate | 4.5 |
| PEG-2 stearate | 4 |
| PEG-3 oleyl ether | <10 |
| PEG-4 dilaurate | 7 |
| PEG-4 dioleate | 6 |
| PEG-4 distearate | 5 |
| PEG-4 oleate | 8.3 |
| PEG-4 stearate | 6.5 |
| PEG-5 oleate | 9.5 |
| PEG-5 oleyl ether | <10 |
| PEG-5 soya sterol | <10 |
| PEG-5 stearate | 9.5 |
| PEG-6 dilaurate | 9.8 |
| PEG-6 dioleate | 7.2 |
| PEG-6 distearate | 6.5 |

| Compound | HLB |
| --- | --- |
| PEG-6 sorbitan monostearate | 11 |
| PEG-6 stearate | 9.7 |
| PEG-7 oleate | 10.4 |
| PEG-8 dioleate | 8.8 |
| PEG-9 oleate | >10 |
| PEG-9 stearate | >10 |
| PEG-10 dipalmitate | >10 |
| PEG-10 soya sterol | <10 |
| PEG-12 dilaurate | 11.7 |
| PEG-12 dioleate | 10 |
| PEG-12 distearate | 10.7 |
| PEG-12 oleate | 14 |
| PEG-12 ricinoleate | >10 |
| PEG-12 stearate | 14 |
| PEG-15 stearate | 14 |
| PEG-20 glyceryl oleate | >10 |
| PEG-20 soya sterol | <10 |
| PEG-24 cholesterol ether | >10 |
| PEG-25 phyto sterol | >10 |
| PEG-30 cholestanol | >10 |
| PEG-30 glyceryl oleate | >10 |
| PEG-30 soya sterol | >10 |
| PEG-30 stearate | >10 |
| PEG-40 oleate | 17.4 |

| Compound | HLB |
| --- | --- |
| PEG-40 stearate | >10 |
| PEG-50 stearate | >10 |
| PEG-100 oleate | 18.8 |
| PEG-100 stearate | 19 |
| PEG-200 oleate | >10 |
| PEG-400 dioleate | >10 |
| PEG-400 distearate | >10 |
| PEG-400 oleate | >10 |
| PEG-600 oleate | >10 |
| Pentaerythrityl tetracaprylate/tetracaprate | <10 |
| Pentaerythrityl tetraisostearate | <10 |
| Phytosterol | <10 |
| Polyglyceryl-2 dioleate | 7 |
| Polyglyceryl-2 isostearate | 5-7 |
| Polyglyceryl-2 oleate | 5-7 |
| Polyglyceryl-2 stearate | 5-7 |
| Polyglyceryl-3 dioleate | <10 |
| Polyglyceryl-3 distearate | <10 |
| Polyglyceryl-3 oleate | 6.5 |
| Polyglyceryl-4 oleate | 5-7 |
| Polyglyceryl-4 pentaoleate | <10 |
| Polyglyceryl-4 stearate | 5-6 |
| Polyglyceryl-6 oleate | 9 |
| Polyglyceryl-6 pentaoleate | <10 |

| Compound | HLB |
| --- | --- |
| Polyglyceryl-6 ricinoleate | >8 |
| Polyglyceryl-10 decaisostearate | <10 |
| Polyglyceryl-10 mono, dioleate | 11 |
| Polyglyceryl-10 oleate | 14 |
| Polyglyceryl-10 pentaoleate | 3.5 |
| Polyglyceryl-10 septaoleate | 3 |
| Polyglyceryl-10 tetraoleate | 6.2 |
| Polyglyceryl-10 trioleate | 7 |
| Polyglyceryl-101 decaoleate | 3.5 |
| Propylene glycol dicaprylate/dicaprate | >6 |
| Sorbitan monoisostearate | 4.7 |
| Sorbitan monooleate | 4.3 |
| Sorbitan monopalmitate | 6.7 |
| Sorbitan monostearate | 4.7 |
| Sorbitan sesquistearate | 4.2 |
| Sorbitan trioleate | 4.3 |
| Sucrose dipalmitate | 7.4 |
| Sucrose distearate | 3 |
| Sucrose monopalmitate | >10 |
